{"source": "patent US20250041387A1", "about": "“POLYPEPTIDE SEQUENCE OF KDM6B AND APPLICATION OF KDM6B IN REGULATING AND CONTROLLING FUNCTION OF MESENCHYMAL STEM CELL” (BEIJING STOMATOLOGICAL HOSPITAL, CAPITAL MEDICAL UNIVERSITY, priority 2021, published 2025)", "key": {"[1]": {"tested_on": "defected palatal mucosa of mice", "test": "Palatal mucosa defect in mice", "assay_type": "in vivo, Balb/c mice", "conditions": "for area of unhealed defected palatal mucosa: individual mice, FIG. 16"}, "[2]": {"tested_on": "defected dorsal skin of mice", "test": "Dorsal full-thickness skin defect in mice", "assay_type": "in vivo, Balb/c mice", "set-up": "area of the defect region (dorsal skin): unit not given here", "conditions": "for area of the defect region (dorsal skin) / Healing rate (dorsal skin defect): individual mice; for Healing rate (dorsal skin defect): FIG. 18", "protocol": "Fifteen 8-month-old male Balb/c mice were randomly divided into three groups: PBS group, control group and 114 group, with five mice in each group.\nBefore the establishment of the defect model, the mice were anaesthetized by injection of 4% chloral hydrate at 0.2 ml/20 g, and the skin was prepared. A circular full-thickness skin defect with a diameter of 6 mm on the back of the mice was created using a skin punch. On the day of the defect creation, the third day, the seventh day, the tenth day, the fourteenth day, the seventeenth day, and the twenty-first day after the defect creation, an equal amount of 100 μl of PBS, 10 μl/ml control peptide, and 10 μl/ml 114 peptide was separately injected at four equidistant sites at 2 mm from the edge of the defect.\nThe defect region was photographed before each injection, and the area of the defect region was calculated by using Image-Pro plus software. The healing rate was calculated as: healing rate=(area of the defect region on day 0-area of the defect region on day 14/21)/area of the defect region on day 0."}, "[3]": {"tested_on": "minipig periodontitis model with bone defect", "test": "Minipig periodontitis model, new bone volume by CBCT three-dimensional reconstruction", "assay_type": "in vivo, Wuzhishan minipigs", "conditions": "week 12 after injection, 60 μl per side; individual sides; FIG. 9; listed as 114 peptide", "text": "Method: An experimental minipig periodontitis model was established by creating bone defect and ligating silk threads. Specifically, minipigs were conventionally anaesthetized, and extraorally disinfected. The mandibular first permanent molar of the minipig was selected as the experimental tooth, which was subjected to intra-sulcal incision and vertical incision. The mucoperiosteal flap was opened, the mesia-buccal root of the mandibular first permanent molar of the minipig was exposed by bone removal, and a bone defect with a size of 3 mm×5 mm×7 mm was created. That is, 3 mm×5 mm×7 mm of the mesial proximal alveolar bone was removed, and the mesiobuccal root buccal bone plate and distal alveolar bone (3 mm×5 mm, the gingival depth was level with the mesial proximal surface) were removed. The suture in situ was performed. The experimental tooth neck was ligated with silk threads. […]\nDrug injection treatment was performed 4 weeks after the modeling operation. The effect of bioactive polypeptide 114 on the regeneration and repair capacity of defected tissues mediated by stem cells in minipigs of periodontitis was assessed by comparing the clinical indicators and imaging examination after modeling (−4 w), 4 weeks after modeling without drug injection (0 w) and 3 months after drug treatment (12 w). […]"}, "[4]": {"tested_on": "OVX mouse of osteoporosis model", "test": "OVX mouse osteoporosis model, micro-CT of distal femur", "assay_type": "in vivo, C57BL/6 mice", "conditions": "OVX mice, 10 mg/kg intraperitoneally for 3 months from 6 weeks after ovary removal, individual mice, FIG. 19B, listed as 114 peptide", "text": "Twenty five 3-month-old C57BL/6 mice were purchased from Vital River and randomly divided into sham operation group, OVX group, PBS group, control peptide group and 114 peptide group, with five mice in each group. The osteoporosis model was established by removing bilateral ovaries in OVX, PBS, control peptide and 114 peptide groups. In the sham operation group, ovaries were not removed. 6 weeks after ovary removal, the mice were intraperitoneally injected with control peptide and peptide 114 at 10 mg/kg for continuous 3 months, and then sacrificed. For the distal femur, the left distal femur of each mouse was scanned ex vivo using a micro-CT system. Each segment of bone trabeculae was selected for segmentation, and subjected to 3D reconstruction. BMD was calculated."}, "[5]": {"tested_on": "minipig periodontitis model with bone defect", "test": "Minipig periodontitis model, clinical indicators (PD, AL, GR) and intraoral observation", "assay_type": "in vivo, Wuzhishan minipigs", "set-up": "attachment loss (AL) / gingival recession (GR): unit not given here", "conditions": "for attachment loss (AL) / gingival recession (GR) / probing depth (PD): individual sides", "text": "Method: An experimental minipig periodontitis model was established by creating bone defect and ligating silk threads. Specifically, minipigs were conventionally anaesthetized, and extraorally disinfected. The mandibular first permanent molar of the minipig was selected as the experimental tooth, which was subjected to intra-sulcal incision and vertical incision. The mucoperiosteal flap was opened, the mesia-buccal root of the mandibular first permanent molar of the minipig was exposed by bone removal, and a bone defect with a size of 3 mm×5 mm×7 mm was created. That is, 3 mm×5 mm×7 mm of the mesial proximal alveolar bone was removed, and the mesiobuccal root buccal bone plate and distal alveolar bone (3 mm×5 mm, the gingival depth was level with the mesial proximal surface) were removed. The suture in situ was performed. The experimental tooth neck was ligated with silk threads. […] The successful establishment of periodontal bone defect model was verified by CT imaging and clinical examination.\n12 Wuzhishan minipigs were used to establish periodontitis model, with a total of 24 sides, which were randomly divided into 3 groups. Each side was injected with a drug at an amount of 60 μl. Group 1: flap surgery with scraping+injection of sterile saline after modeling (untreated control group); group 2: flap surgery with scraping+injection of control polypeptide after modeling (control group); group 3: flap surgery with scraping+injection of bioactive polypeptide 114 after modeling (experimental group).\nDrug injection treatment was performed 4 weeks after the modeling operation. The effect of bioactive polypeptide 114 on the regeneration and repair capacity of defected tissues mediated by stem cells in minipigs of periodontitis was assessed by comparing the clinical indicators and imaging examination after modeling (−4 w), 4 weeks after modeling without drug injection (0 w) and 3 months after drug treatment (12 w).\nClinical indicators (PD, AL and GR) detection and CT imaging were performed before the experiment, after modeling (−4 w) and 3 months after treatment (12 w).\nPeriodontal probing depth (PD): The depth of the periodontal pocket on the mesiobuccal side of the tooth was recorded at a probing pressure of 20-25 g.\nGingival recession (GR): The distance from the cemento-enamel junction to the gingival margin was measured using a periodontal probe. If there was gingival recession, the cementoenamel junction was exposed, and the gingival margin was located at the root of the cementoenamel junction, then the distance between the two was recorded as a positive value; if there was no gingival recession, the gingival margin was located at the crown of the cementoenamel junction, then the distance between the two was recorded as a negative value.\nAttachment loss (AL): The degree of attachment loss was determined by subtracting GR from the periodontal pocket depth. If the two numbers were subtracted to zero, or the cementoenamel junction cannot be detected, it means there was no attachment loss. If the gingival recession caused the gingival margin to locate at the root of the cementoenamel junction, the two numbers were added to obtain the degree of the attachment loss. • 2.1 Probing depth (PD) was shown in Table 17 and FIG. 10."}, "[6]": {"conditions": "0 w, 4 weeks after modeling without drug injection, listed as 114 peptide"}, "[7]": {"conditions": "12 w after injection, listed as 114 peptide"}}, "note": "Where “and” joins values, the source holds several entries; their conditions need not be identical. Equal values may be shown once."}
{"substance": "FITC-(Acp)-ADLTISHCAADVVRAYGRKKRRQRRR [peptide 114]", "values": [{"measurement": "healing of defected palatal mucosa (observation)", "setting": "[1]; compared to PBS group and control peptide group, FIG. 15", "result": "obviously healed"}, {"measurement": "area of unhealed defected palatal mucosa", "setting": "[1]; day 14", "result": "5.782 and 7.254 and 8.231 and 5.52 and 6.401"}, {"measurement": "area of unhealed defected palatal mucosa", "setting": "[1]; day 21", "result": "2.259 and 0.3319 and 1.964 and 2.33 and 2.213"}, {"measurement": "area of the defect region (dorsal skin)", "setting": "[2]; Day 0", "result": "6226 and 6554 and 6917 and 5532 and 4700"}, {"measurement": "area of the defect region (dorsal skin)", "setting": "[2]; Day 10", "result": "1396 and 3701 and 2313 and 983 and 1816"}, {"measurement": "Healing rate (dorsal skin defect)", "setting": "[2]; Day 10", "result": "0.7758 and 0.4353 and 0.6656 and 0.8223 and 0.6136"}, {"measurement": "area of the defect region (dorsal skin)", "setting": "[2]; Day 14", "result": "681 (2×) and 722 and 486 and 715"}, {"measurement": "Healing rate (dorsal skin defect)", "setting": "[2]; Day 14", "result": "0.8906 and 0.8898 and 0.9015 and 0.9121 and 0.8479"}, {"measurement": "healing of defected dorsal skin (observation)", "setting": "[2]; days 0 and 14, compared to PBS and control peptide groups, FIG. 17", "result": "significant healing"}, {"measurement": "new bone formation volume", "setting": "[3]", "result": "better and higher and 101.99 mm^3 and 80.68 mm^3 and 79.08 mm^3 and 80.48 mm^3 and 76.48 mm^3 and 85.49 mm^3"}, {"measurement": "bone density (BMD) of femoral bone trabeculae", "setting": "[4]", "result": "significant up-regulation and 0.1440 and 0.1242 and 0.1416 and 0.1071 and 0.1137"}, {"measurement": "attachment loss (AL)", "setting": "[5]; [6]", "result": "9.5 (3×) and 9 and 12 (2×)"}, {"measurement": "gingival recession (GR)", "setting": "[5]; [6]", "result": "2.5 (3×) and 1 (2×) and 0.5 and 3 and 4.5"}, {"measurement": "probing depth (PD)", "setting": "[5]; [6]", "result": "7.5 (3×) and 8.5 and 7 and 8 and 9 (2×)"}, {"measurement": "attachment loss (AL)", "setting": "[5]; [7]", "result": "significantly lower and 3 and 2.5 and 1.5 and 4"}, {"measurement": "gingival recession (GR)", "setting": "[5]; [7]", "result": "significantly lower and 0.5 and 1"}, {"measurement": "probing depth (PD)", "setting": "[5]; [7]", "result": "significantly lower and 2.5 and 2 and 0.5 and 1 and 3"}, {"measurement": "mesenchymal stem cells-mediated regeneration of periodontal tissue", "setting": "[5]; CT imaging, bone volume analysis and clinical examination", "result": "promoted"}, {"measurement": "restoration effect of soft tissues (intraoral images)", "setting": "[5]; week 12 after injection, FIG. 14", "result": "better"}, {"measurement": "probing depth (PD)", "setting": "[5]; −4 w, before drug injection, FIG. 10, listed as 114 peptide", "result": "1 (7×) and 2"}, {"measurement": "gingival recession (GR)", "setting": "[5]; −4 w, before drug injection, FIG. 12", "result": 0}]}
